In assay [1] the test system is Staphylococcus aureus. The experiment in a line: Antibacterial activity against methicillin resistant Staphylococcus aureus No. 5. The format is functional.
Another assay has as its system Streptococcus pneumoniae. As to the kind of experiment: Antibacterial activity against Streptococcus pneumoniae PCI 602. The format is functional.
Assay [2] in a line: Antibacterial activity against Mycobacterium avium subsp. avium ATCC 25291. The format is functional.
Assay [3] relates to Mycolicibacterium smegmatis. As to the kind of experiment: Antibacterial activity against Mycobacterium smegmatis ATCC 607. The format is functional.
For assay [4], the system named is Mycobacterium tuberculosis. As to the kind of experiment: Antibacterial activity against Mycobacterium tuberculosis Kurono. The format is functional.
A further assay has as its system Mycolicibacterium phlei. The experiment in a line: Antibacterial activity against Mycobacterium phlei. The format is functional.
The test system of a further assay is Bacillus subtilis. As to the kind of experiment: Antibacterial activity against Bacillus subtilis PCI 219. The format is functional.
The subject of assay [5] is Mycobacterium tuberculosis. As to the kind of experiment: Antibacterial activity against Mycobacterium tuberculosis JCM 6384. The format is functional.
Assay [6] relates to Staphylococcus aureus. As to the kind of experiment: Antibacterial activity against methicillin resistant Staphylococcus aureus MS16526. The format is functional.
Another assay relates to Mycolicibacterium vaccae. As to the kind of experiment: Antibacterial activity against Mycobacterium vaccae ATCC 15483. The format is functional.
For assay [7], the system named is Staphylococcus aureus. As to the kind of experiment: Antibacterial activity against Staphylococcus aureus FDA 209P. The format is functional.
The subject of assay [8] is Mycobacterium tuberculosis. The experiment in a line: Antibacterial activity against Mycobacterium tuberculosis H37Rv. The format is functional.
Assay [9] concerns Mycobacterium avium subsp. paratuberculosis. As to the kind of experiment: Antibacterial activity against Mycobacterium avium subsp. paratuberculosis ATCC 43015. The format is functional.
The next assay deals with Escherichia coli. The experiment in a line: Antibacterial activity against Escherichia coli K-12. The format is functional.
The target in assay [10] is T1, Phospho-N-acetylmuramoyl-pentapeptide-transferase (Staphylococcus aureus, UniProt P0C1R8).
T1 sequence (P0C1R8 whole entry): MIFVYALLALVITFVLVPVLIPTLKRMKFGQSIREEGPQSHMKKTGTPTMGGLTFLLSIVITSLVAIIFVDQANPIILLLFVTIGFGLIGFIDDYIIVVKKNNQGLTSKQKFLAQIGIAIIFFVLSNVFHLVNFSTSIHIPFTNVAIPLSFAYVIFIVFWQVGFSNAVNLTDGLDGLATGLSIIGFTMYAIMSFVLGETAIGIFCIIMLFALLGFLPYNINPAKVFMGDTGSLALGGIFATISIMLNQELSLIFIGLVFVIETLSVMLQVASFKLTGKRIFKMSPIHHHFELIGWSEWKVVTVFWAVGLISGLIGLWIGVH
The experiment in a line: Inhibition of MraY in Staphylococcus aureus.

Assay [11] deals with Staphylococcus aureus. As to the kind of experiment: Antibacterial activity against methicillin susceptible Staphylococcus aureus ATCC 29213. The format is functional.
In assay [12] the test system is Enterococcus faecium. The experiment in a line: Antibacterial activity against Enterococcus faecium ATCC 19434. The format is functional.
Assay [13] deals with Staphylococcus aureus. As to the kind of experiment: Antibacterial activity against methicillin resistant Staphylococcus aureus SR3637. The format is functional.
The test system of assay [14] is Enterococcus faecalis. As to the kind of experiment: Antibacterial activity against Enterococcus faecalis ATCC 29212. The format is functional.
The test system of assay [15] is Enterococcus faecium. The experiment in a line: Antibacterial activity against Enterococcus faecium SR7917 (VRE). The format is functional.
Assay [16] relates to Enterococcus faecalis. The experiment in a line: Antibacterial activity against Enterococcus faecalis SR7914 (VRE). The format is functional.
The test system of another assay is Haemophilus influenzae. The experiment in a line: Antibacterial activity against Haemophilus influenzae ATCC 10211. The format is functional.

Molecules are shown by their SMILES. pIC50: −log10 of the molar value. ≈ marks a conversion by molar mass, not a printed value.

From ChEMBL document CHEMBL4402510, “Caprazamycins: Promising lead structures acting on a novel antibacterial target MraY” (Eur J Med Chem, 2019) come the findings set out here.

As usually defined, the pIC50 is the IC50 on a negative log10 scale, so that one unit is a factor of ten. High values mean a small IC50, low ones a large IC50.

`CCCCCCCCCCCCCCCCCCOC(=O)C1=CCN(C)[C@@H]([C@H](O[C@@H]2O[C@H](CN)[C@@H](O)[C@H]2O)[C@H]2O[C@@H](n3ccc(=O)[nH]c3=O)[C@H](O)[C@@H]2O)C(=O)N1C`: the MIC against Staphylococcus aureus [1] was 50 µg/mL (≈ 61.7 µM); in the assay with Streptococcus pneumoniae, > 100 µg/mL; in assay [2] it was 12.5 µg/mL (≈ 15.4 µM); in assay [3], > 100 µg/mL; in [4], 3.13 µg/mL (≈ 3.86 µM); in the assay with Mycolicibacterium phlei it was > 100 µg/mL. The MIC in the assay on Bacillus subtilis was 3.13 µg/mL (≈ 3.86 µM); in [5] it was 6.25 µg/mL (≈ 7.72 µM); with Staphylococcus aureus [6], 50 µg/mL (≈ 61.7 µM); in the assay on Mycolicibacterium vaccae, > 100 µg/mL; in the assay on Staphylococcus aureus [7] it was 25 µg/mL (≈ 30.9 µM); in assay [8], 6.25 µg/mL (≈ 7.72 µM). The MIC in [9] was 3.13 µg/mL (≈ 3.86 µM); in the assay on Escherichia coli, > 100 µg/mL.
On to `CCCCCCCCCCCCCCCNC(=O)C1=CCN(C)[C@@H]([C@H](O[C@@H]2O[C@H](CN)[C@@H](O)[C@H]2O)[C@H]2O[C@@H](n3ccc(=O)[nH]c3=O)[C@H](O)[C@@H]2O)C(=O)N1C`, for which the MIC with Staphylococcus aureus [1] is > 100 µg/mL; in the assay with Streptococcus pneumoniae it was 3.13 µg/mL (≈ 4.08 µM); in assay [2] it was 3.13 µg/mL (≈ 4.08 µM); in assay [3], 1.56 µg/mL (≈ 2.03 µM); in [4], 1.56 µg/mL (≈ 2.03 µM); against Mycolicibacterium phlei, 6.25 µg/mL (≈ 8.15 µM). Moreover, the MIC against Bacillus subtilis is 1.56 µg/mL (≈ 2.03 µM); in [5], 1.56 µg/mL (≈ 2.03 µM); against Staphylococcus aureus [6], 50 µg/mL (≈ 65.2 µM); with Mycolicibacterium vaccae, 6.25 µg/mL (≈ 8.15 µM); with Staphylococcus aureus [7] it was < 0.2 µg/mL; in assay [8], 1.56 µg/mL (≈ 2.03 µM). Besides, the MIC in assay [9] came out at 0.78 µg/mL (≈ 1.02 µM); against Escherichia coli, 1.56 µg/mL (≈ 2.03 µM).
For the molecule `CCCCCCCCCCCCCNC(=O)C1=CCN(C)[C@@H]([C@H](O[C@@H]2O[C@H](CN)[C@@H](O)[C@H]2O)[C@H]2O[C@@H](n3ccc(=O)[nH]c3=O)[C@H](O)[C@@H]2O)C(=O)N1C`, the MIC in the assay on Staphylococcus aureus [1] amounted to 6.25 µg/mL (≈ 8.46 µM); in the assay on Streptococcus pneumoniae, 6.25 µg/mL (≈ 8.46 µM); in assay [2], 3.13 µg/mL (≈ 4.24 µM); in [3] it was 0.39 µg/mL (≈ 0.528 µM); in assay [4], 1.56 µg/mL (≈ 2.11 µM); with Mycolicibacterium phlei, 0.78 µg/mL (≈ 1.06 µM). In addition, the MIC against Bacillus subtilis was 0.39 µg/mL (≈ 0.528 µM); in [5], 0.2 µg/mL (≈ 0.271 µM); in the assay on Staphylococcus aureus [6], 3.13 µg/mL (≈ 4.24 µM); against Mycolicibacterium vaccae, 0.78 µg/mL (≈ 1.06 µM); against Staphylococcus aureus [7], 3.13 µg/mL (≈ 4.24 µM); in assay [8] it was 1.56 µg/mL (≈ 2.11 µM). For the same molecule, the MIC in assay [9] is 0.1 µg/mL (≈ 0.135 µM); against Escherichia coli it was 100 µg/mL (≈ 135 µM).
In assay [10], `CCCCCCCCCCCCCCCCC[C@H]1CN(C)[C@@H]([C@H](O[C@@H]2O[C@H](CN)[C@@H](O)[C@H]2O)[C@H]2O[C@@H](n3ccc(=O)[nH]c3=O)[C@H](O)[C@@H]2O)C(=O)N(C)[C@@H]1C(=O)O` gave a negative logarithm of the IC50 (pIC50) of 5.16. The MIC against Staphylococcus aureus [11] amounted to 8 µg/mL (≈ 10 µM); against Enterococcus faecium [12] it was 8 µg/mL (≈ 10 µM); against Staphylococcus aureus [13] it was 8 µg/mL (≈ 10 µM); against Enterococcus faecalis [14] it was 4 µg/mL (≈ 5.01 µM); against Enterococcus faecium [15], 8 µg/mL (≈ 10 µM); in the assay on Enterococcus faecalis [16], 8 µg/mL (≈ 10 µM).
`CCCCCCCCCCCCCCCC(=O)OC[C@@H]1[C@H](C(=O)N(C)C)[C@@H]([C@H]2O[C@@H](n3ccc(=O)[nH]c3=O)[C@H](O)[C@@H]2O)ON1CCCN`: the figures for the MIC against Enterococcus faecalis [14], in the assay with Enterococcus faecalis [16] and in the assay on Haemophilus influenzae were 16 µg/mL (≈ 23.5 µM), 4 µg/mL (≈ 5.87 µM) and 0.5 µg/mL (≈ 0.733 µM), respectively.
Take `CCCCc1ccc(NC(=O)C2=CCN[C@@H]([C@H](O[C@@H]3O[C@H](CN)[C@@H](O)[C@H]3O)[C@H]3O[C@@H](n4ccc(=O)[nH]c4=O)[C@H](O)[C@@H]3O)C(=O)N2C)cc1`: the MIC is 100 µg/mL (≈ 148 µM) in the assay on Staphylococcus aureus [1]; 50 µg/mL (≈ 74.1 µM) with Streptococcus pneumoniae; 1.56 µg/mL (≈ 2.31 µM) in assay [2]; 6.25 µg/mL (≈ 9.26 µM) in assay [3]; 1.56 µg/mL (≈ 2.31 µM) in [4]; 12.5 µg/mL (≈ 18.5 µM) against Mycolicibacterium phlei. In addition, the MIC in the assay with Bacillus subtilis was 3.13 µg/mL (≈ 4.64 µM); in assay [5], 0.2 µg/mL (≈ 0.296 µM); with Staphylococcus aureus [6], 100 µg/mL (≈ 148 µM); in the assay with Mycolicibacterium vaccae, 50 µg/mL (≈ 74.1 µM); in the assay with Staphylococcus aureus [7] it was 25 µg/mL (≈ 37.1 µM); in [8], 1.56 µg/mL (≈ 2.31 µM). The figures for the MIC (in assay [9]; with Escherichia coli) were 0.39 µg/mL (≈ 0.578 µM) and > 100 µg/mL, respectively.
For the molecule `CCCCCCCCCCCCCCCC(=O)OC[C@@H]1[C@H](C(N)=O)[C@@H]([C@H]2O[C@@H](n3ccc(=O)[nH]c3=O)[C@H](O)[C@@H]2O)ON1CCCN`, the results for the MIC with Enterococcus faecalis [14], against Enterococcus faecalis [16] and in the assay on Haemophilus influenzae were 16 µg/mL (≈ 24.5 µM), 8 µg/mL (≈ 12.2 µM) and 0.25 µg/mL (≈ 0.382 µM), respectively.
